# Results from patent publication US11696913B2, “Prolonged ectoparasite-controlling agent for animal” (MITSUI CHEMICALS AGRO, INC., priority 2017, dated 2023).
# What was measured:
# [1] = system: Rhipicephalus (Boophilus) microplus; assay: In vitro injection test with Rhipicephalus (Boophilus) microplus (BOOPMI Inj); conditions: 168 h, laid fertile eggs after 7 days, read-out: acaricidal activity; for pest or weed control at 32 ng: dose 0.032 μg/animal injected; for pest or weed control at 0.00016 mg: dose 0.16 μg/animal injected; for pest or weed control at 0.0008 mg: dose 0.8 μg/animal injected
# Procedure: In Vitro Injection Test with Rhipicephalus (Boophilus) Microplus (BOOPMI Inj)
# To produce an appropriate mixture for injection, the test substance was dissolved and diluted in dimethyl sulphoxide to the desired concentration. 1 μl of the test mixture was injected into the abdomen of each of 5 engorged adult female cattle ticks (Rhipicephalus (Boophilus) microplus). The ticks were transferred into petri dishes and maintained in a climate-controlled room [28° C., 85% rel. hum.].
# Acaricidal activity against cattle ticks was assessed after 7 days by assessment of laid fertile eggs. […] An acaricidal activity of 100% means that none of the ticks laid eggs or laid eggs were infertile; 0% means that the ticks laid eggs, and all the eggs were fertile.
# Ctenocephalides felis [2] = assay: Ctenocephalides felis in-vitro feeding test with fleas (CTECFE oral); conditions: 48 hours, read-out: insecticidal feeding activity; for pest or weed control at 0.032 ppm: dose 0.032 ppm in citrated cattle blood; for pest or weed control at 0.16 ppm: dose 0.16 ppm in citrated cattle blood; for pest or weed control at 0.8 ppm: dose 0.8 ppm in citrated cattle blood; for pest or weed control at 4 ppm: dose 4 ppm in citrated cattle blood
# Procedure: Ctenocephalides felis In-Vitro Feeding Test with Fleas (CTECFE Oral)
# To prepare a test blood mixture for feeding fleas, the test substance was dissolved in dimethyl sulphoxide and diluted with citrated cattle blood to the desired concentration.
# To assemble the test set-up, about 20 unfed adult male and female cat fleas
# (Ctenocephalides felis) were placed in a chamber which was closed at the top and bottom with gauze. A metal cylinder was sealed at one end with parafilm membrane, placed with the sealed base onto the chamber, and filled with the test blood mixture, which could be imbibed by the fleas through the parafilm membrane. The assembled test set-up was maintained at about 37° C. After 48 hours, the insecticidal feeding activity against fleas was determined. 100% means that all of the fleas were killed; 0% means that none of the fleas was killed.
# Ctenocephalides felis [3] = assay: In vitro contact test with fleas; conditions: read-out: insecticidal activity; for pest or weed control at 0.2 µg/cm2, 0.2 µg/cm2: dose 0.2 μg/cm^2, dead or moribund fleas after 48 h; for pest or weed control at 1 µg/cm2, 1 µg/cm2: dose 1 μg/cm^2, dead or moribund fleas after 48 h; for pest or weed control at 0.04 µg/cm2, 0.04 µg/cm2: dose 0.04 μg/cm^2, dead or moribund fleas after 48 h
# Procedure: In Vitro Contact Tests with Fleas
# In vitro contact tests with fleas were conducted with adult male and female cat fleas (Ctenocephalides felis).
# (§1) To coat the test tubes, the test substance was dissolved and diluted in acetone p.a. to the desired concentration. The solution was then homogeneously applied to the inner wall and base of a glass tube by turning and rocking on an orbital shaker until complete evaporation of the solvent. For example, with a 900 ppm solution of test substance, an area-based dose of 5 μg/cm^2 was achieved.
# Upon complete evaporation of the solvent, 5-10 adult cat fleas (Ctenocephalides felis) were added to each coated tube, which was then sealed with a perforated plastic lid and incubated in a horizontal position at room temperature and ambient humidity. After 48 h, insecticidal activity against fleas was determined. For this, fleas were collected to the base of the tube by knocking the tube, and the tube was allowed to stand upright. Fleas which remained motionless at the base or moved in an uncoordinated manner were considered dead or moribund, respectively.
# A substance was judged to have good insecticidal activity against Ctenocephalides felis when at least 80% of the fleas were found dead or moribund at a dose of the substance of μg/cm^2. 100% insecticidal activity means that all the fleas were found dead or moribund. 0% insecticidal activity means that no fleas were found dead or moribund.
# Ixodes ricinus = assay: In vitro contact test with adult hard ticks (Ixodes ricinus); conditions: read-out: acaricidal activity; for pest or weed control at 0.2 µg/cm2, 0.2 µg/cm2: dose 0.2 μg/cm^2, 48 h; for pest or weed control at 1 µg/cm2, 1 µg/cm2: dose 1 μg/cm^2, 48 h; for pest or weed control at 5 µg/cm2, 5 µg/cm2: dose 5 μg/cm^2, 48 h
# Procedure: (§2) In Vitro Contact Tests with Adult Hard Ticks
# (§3) In vitro contact tests with ticks were conducted with adult males and females of Rhipicephalus sanguineus, Ixodes ricinus, or Dermacentor variabilis, or nymphs of Amblyomma americanum.
# as §1, with “For the coating of” for “To coat”, “vials,” for “tubes,”, “vial” for “tube”
# (§4) After the solvent was completely evaporated, 5-10 adult ticks were put in each coated test vial, which was then sealed with a perforated plastic lid and incubated in a horizontal position in the dark at room temperature and ambient humidity (Rhipicephalus sanguineus) or in a climate-controlled cabinet (Ixodes ricinus, Dermacentor variabilis, Amblyomma americanum [21° C., 85% rel. hum.]). Acaricidal activity against the respective tick species was determined after 48 h. For this, ticks were collected to the base of the test vial by gentle knocking, and test vials were then incubated on a hotplate at 45-50° C. for no longer than 5 min. Ticks which remained motionless on the base of the test vial or moved uncoordinated without deliberately climbing up to avoid the heat were considered dead or moribund, respectively.
# (§5) A substance was judged to have good acaricidal activity against the respective tick species when at least 80% of ticks were found dead or moribund at a dose of the substance of g/cm^2. An acaricidal activity of 100% means all ticks were dead or moribund. An acaricidal activity of 0% means none of the ticks was found dead or moribund.
# Dermacentor variabilis = assay: In vitro contact test with adult hard ticks (Dermacentor variabilis); conditions: read-out: acaricidal activity; for pest or weed control at 0.2 µg/cm2, 0.2 µg/cm2: dose 0.2 μg/cm^2, 48 h; for pest or weed control at 1 µg/cm2, 1 µg/cm2: dose 1 μg/cm^2, 48 h
# Procedure: as §2, §3
# as §1, with “For the coating of” for “To coat”, “vials,” for “tubes,”, “vial” for “tube”
# as §4, §5
# Amblyomma americanum = assay: In vitro contact test with hard ticks (Amblyomma americanum nymphs); conditions: read-out: acaricidal activity; for pest or weed control at 0.2 µg/cm2, 0.2 µg/cm2: dose 0.2 μg/cm^2, 48 h; for pest or weed control at 1 µg/cm2, 1 µg/cm2: dose 1 μg/cm^2, 48 h
# Procedure: as §2, §3
# as §1, with “For the coating of” for “To coat”, “vials,” for “tubes,”, “vial” for “tube”
# as §4, §5
# Rhipicephalus sanguineus = assay: In vitro contact test with adult hard ticks (Rhipicephalus sanguineus); conditions: read-out: acaricidal activity; for pest or weed control at 0.04 µg/cm2, 0.04 µg/cm2: dose 0.04 μg/cm^2, 48 h; for pest or weed control at 0.2 µg/cm2, 0.2 µg/cm2: dose 0.2 μg/cm^2, 48 h; for pest or weed control at 1 µg/cm2, 1 µg/cm2: dose 1 μg/cm^2, 48 h
# Procedure: as §2, §3
# as §1, with “For the coating of” for “To coat”, “vials,” for “tubes,”, “vial” for “tube”
# as §4, §5
Compound,pest or weed control at 32 ng [1] [%],pest or weed control at 0.00016 mg [1] [%],pest or weed control at 0.0008 mg [1] [%],pest or weed control at 0.16 ppm (Ctenocephalides felis [2]) [%],pest or weed control at 0.8 ppm (Ctenocephalides felis [2]) [%],pest or weed control at 4 ppm (Ctenocephalides felis [2]) [%],"pest or weed control at 0.2 µg/cm2, 0.2 µg/cm2 (Ctenocephalides felis [3]) [%]","pest or weed control at 1 µg/cm2, 1 µg/cm2 (Ctenocephalides felis [3]) [%]","pest or weed control at 5 µg/cm2, 5 µg/cm2 (Ixodes ricinus) [%]","pest or weed control at 0.2 µg/cm2, 0.2 µg/cm2 (Dermacentor variabilis) [%]","pest or weed control at 1 µg/cm2, 1 µg/cm2 (Dermacentor variabilis) [%]","pest or weed control at 0.2 µg/cm2, 0.2 µg/cm2 (Amblyomma americanum) [%]","pest or weed control at 1 µg/cm2, 1 µg/cm2 (Amblyomma americanum) [%]","pest or weed control at 0.04 µg/cm2, 0.04 µg/cm2 (Rhipicephalus sanguineus) [%]","pest or weed control at 0.2 µg/cm2, 0.2 µg/cm2 (Rhipicephalus sanguineus) [%]","pest or weed control at 1 µg/cm2, 1 µg/cm2 (Rhipicephalus sanguineus) [%]",further results
N#Cc1ccc(C(=O)Nc2cccc(C(=O)Nc3c(Br)cc(C(F)(C(F)(F)F)C(F)(F)F)cc3OC(F)(F)F)c2F)cc1 [Compound 13],100,100,100,95,95,95,95,95,90,90,90,90,90,90,90,90,"pest or weed control at 0.032 ppm (Ctenocephalides felis [2]): 95%; pest or weed control at 0.2 µg/cm2, 0.2 µg/cm2 (Ixodes ricinus): 90%; pest or weed control at 1 µg/cm2, 1 µg/cm2 (Ixodes ricinus): 90%"
O=C(Nc1cccc(C(=O)Nc2c(Br)cc(C(F)(C(F)(F)F)C(F)(F)F)cc2C(F)(F)F)c1F)c1ccc(F)cc1 [Compound 29],–,–,–,–,95,95,95,95,90,90,90,90,90,90,90,90,–
CN(C(=O)c1ccc(C#N)cc1)c1cccc(C(=O)Nc2c(I)cc(C(F)(C(F)(F)F)C(F)(F)C(F)(F)F)cc2C(F)(F)F)c1F (stereo not drawn) [Compound 23],100,100,100,95,95,95,95,95,–,90,90,–,90,–,–,90,"pest or weed control at 6.4 ng ([1]; dose 0.0064 μg/animal injected): 100%; pest or weed control at 0.0064 ppm (Ctenocephalides felis [2]; dose 0.0064 ppm in citrated cattle blood): 95%; pest or weed control at 0.032 ppm (Ctenocephalides felis [2]): 95%; pest or weed control at 0.04 µg/cm2, 0.04 µg/cm2 (Ctenocephalides felis [3]): 95%; pest or weed control at 0.04 µg/cm2, 0.04 µg/cm2 (Dermacentor variabilis; dose 0.04 μg/cm^2, 48 h): 90%"
CN(C(=O)c1ccc(F)nc1)c1cccc(C(=O)Nc2c(Br)cc(C(F)(C(F)(F)F)C(F)(F)F)cc2C(F)(F)F)c1F [Compound 21],100,100,100,–,95,95,95,95,–,90,90,90,90,90,90,90,"pest or weed control at 0.04 µg/cm2, 0.04 µg/cm2 (Ctenocephalides felis [3]): 95%"
O=C(Nc1cccc(C(=O)Nc2c(Br)cc(C(F)(C(F)(F)F)C(F)(F)F)cc2OC(F)(F)F)c1)c1ccc(F)cc1 [Compound 12],–,100,100,–,95,95,95,95,90,–,–,90,90,90,90,90,"pest or weed control at 0.2 µg/cm2, 0.2 µg/cm2 (Ixodes ricinus): 90%; pest or weed control at 1 µg/cm2, 1 µg/cm2 (Ixodes ricinus): 90%; pest or weed control at 0.04 µg/cm2, 0.04 µg/cm2 (Amblyomma americanum; dose 0.04 μg/cm^2, 48 h): 90%"
O=C(Nc1c(I)cc(C(F)(C(F)(F)F)C(F)(F)F)cc1C(F)(F)F)c1cccc(NC(=O)c2cc(F)c(F)cc2Cl)c1 [Compound 38],–,100,100,95,95,95,95,95,–,–,90,90,90,–,–,–,–
N#Cc1ccc(C(=O)Nc2cccc(C(=O)Nc3c(Br)cc(C(F)(C(F)(F)F)C(F)(F)F)cc3C(F)(F)F)c2)c(F)c1 [Compound 15],–,100,100,–,–,95,95,95,–,–,–,90,90,–,90,90,–
O=C(Nc1cccc(C(=O)Nc2c(I)cc(C(F)(C(F)(F)F)C(F)(F)F)cc2C(F)(F)F)c1F)c1ccc(Cl)cc1Cl [Compound 33],–,100,100,95,95,95,95,95,–,90,90,90,90,–,–,–,–
O=C(Nc1cccc(C(=O)Nc2c(Br)cc(C(F)(C(F)(F)F)C(F)(F)F)cc2OC(F)(F)F)c1)c1ccc([N+](=O)[O-])cc1 [Compound 11],–,100,100,95,95,95,95,95,–,–,–,90,90,90,90,90,–
